One experiment has as its target T1, PPAR Alpha (Homo sapiens, UniProt Q07869).
T1 sequence (Q07869 1-468): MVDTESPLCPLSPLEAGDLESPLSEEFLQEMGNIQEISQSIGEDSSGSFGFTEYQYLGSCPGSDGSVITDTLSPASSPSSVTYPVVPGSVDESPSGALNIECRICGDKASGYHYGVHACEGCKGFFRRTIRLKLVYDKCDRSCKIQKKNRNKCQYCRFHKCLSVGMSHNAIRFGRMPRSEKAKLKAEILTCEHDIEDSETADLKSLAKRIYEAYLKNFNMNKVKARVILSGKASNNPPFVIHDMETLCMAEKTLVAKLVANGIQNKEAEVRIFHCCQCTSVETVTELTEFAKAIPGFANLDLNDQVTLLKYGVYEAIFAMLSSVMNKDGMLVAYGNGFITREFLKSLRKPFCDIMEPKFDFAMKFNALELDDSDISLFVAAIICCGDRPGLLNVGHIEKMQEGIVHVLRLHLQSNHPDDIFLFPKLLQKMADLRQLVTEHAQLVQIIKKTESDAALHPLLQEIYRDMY
As to the kind of experiment: PathHunter NHR protein interaction / nuclear translocation agonist test, PPAR Alpha. Type of experiment: cell-based. The following applies: for Emax: read-out: PPAR Alpha Maximum Activation Response %.

For the next experiment, the target named is T2, PPAR Delta (Homo sapiens, UniProt Q03181).
T2 sequence (Q03181 1-441): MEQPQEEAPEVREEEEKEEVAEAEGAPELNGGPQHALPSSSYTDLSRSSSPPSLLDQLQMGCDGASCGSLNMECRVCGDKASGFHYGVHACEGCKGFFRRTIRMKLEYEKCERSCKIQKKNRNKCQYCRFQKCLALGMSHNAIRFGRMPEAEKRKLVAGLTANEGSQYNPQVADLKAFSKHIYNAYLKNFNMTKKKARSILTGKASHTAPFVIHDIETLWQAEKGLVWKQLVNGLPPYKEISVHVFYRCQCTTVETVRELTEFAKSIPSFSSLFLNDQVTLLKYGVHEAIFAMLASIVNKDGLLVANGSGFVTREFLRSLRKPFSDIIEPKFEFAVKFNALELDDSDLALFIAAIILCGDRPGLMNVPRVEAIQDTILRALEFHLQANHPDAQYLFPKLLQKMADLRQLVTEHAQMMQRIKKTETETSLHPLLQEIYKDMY
Briefly: PathHunter NHR protein interaction / nuclear translocation agonist test, PPAR Delta. Type of experiment: cell-based. The following applies: for Emax: read-out: PPAR Delta Maximum Activation Response %.

Setting [1] is: agonist mode, read-out: PPAR Alpha EC50.
[2] abbreviates: agonist mode, read-out: PPAR Delta EC50.
[3] abbreviates: relative to known PPARδ agonist L-165,041 = 100%.

Like-named read-outs stand apart in the source and are kept apart here. A value given as a limit tells only on which side of the number the result lay.

Consider `CSc1ccc(C(=O)[C@H]2CNC[C@@H]2c2cc(C)c(OC(C)(C)C(=O)O)c(C)c2)cc1` (racemic) [Compound 3], for which the EC50 at PPAR Alpha (setting [1]) was over 250 nM. The Emax at PPAR Alpha is under 50%.
In the same order, the values of `CSc1ccc(C(=O)[C@H]2CN(Cc3ccccc3)C[C@@H]2c2cc(C)c(OC(C)(C)C(=O)O)c(C)c2)cc1` (racemic) [Compound 2] are over 250 nM and under 50%.
Consider `CSc1ccc(C(=O)[C@@H]2CN(C(=O)Oc3ccccc3)C[C@H]2CCc2cc(C)c(OC(C)(C)C(=O)O)c(C)c2)cc1` (single isomer, unassigned) [Compound 52], for which the EC50 on PPAR Delta (setting [2]) and at PPAR Alpha (setting [1]) was under 100 nM throughout.
Take `CSc1ccc(C(=O)C2CN(C(=O)Oc3ccc(Br)cc3)CC2Cc2cc(C)c(OC(C)(C)C(=O)O)c(C)c2)cc1` (stereo not drawn) [Compound 29]: the EC50 at PPAR Delta (setting [2]) and at PPAR Alpha (setting [1]) was under 100 nM in each case. Moreover, the Emax on PPAR Delta and on PPAR Alpha was 80 to 100% throughout.
In the case of `COc1ccc(OC(=O)N2CC(C(=O)c3ccc(SC)cc3)[C@@H](c3cc(C)c(OC(C)(C)C(=O)O)c(C)c3)C2)cc1` (mixture of isomers) [Compound 15], the EC50 on PPAR Delta (setting [2]) was in the range of 200 to 250 nM; at PPAR Alpha (setting [1]), 150 to 200 nM. Besides, the Emax lay within 50 to 80% on PPAR Delta and 80 to 100% at PPAR Alpha.
Regarding `CSc1ccc(C(=O)C2CN(S(C)(=O)=O)CC2c2cc(C)c(OC(C)(C)C(=O)O)c(C)c2)cc1` (single isomer, unassigned) [Compound 18], the EC50 was over 250 nM at PPAR Delta (setting [2]) and 200 to 250 nM at PPAR Alpha (setting [1]). For the same compound, the Emax at PPAR Delta (setting [3]) was 50 to 80%; on PPAR Alpha it was 80 to 100%.
With `CSc1ccc(C(=O)C2CN(C(=O)Oc3ccccc3)CC2Cc2cccc(OC(C)(C)C(=O)O)c2)cc1` (single isomer, unassigned) [Compound 49], the EC50 on PPAR Delta (setting [2]) fell in the range of 100 to 150 nM. Moreover, the Emax at PPAR Delta is 50 to 80%.
Regarding `CSc1ccc(C(=O)[C@H]2CN(C(=O)OCCC(C)C)C[C@@H]2CCc2cc(C)c(OC(C)(C)C(=O)O)c(C)c2)cc1` (racemic) [Compound 72], the EC50 on PPAR Delta (setting [2]) was 100 to 150 nM; at PPAR Alpha (setting [1]) it was under 100 nM. Besides, the Emax on PPAR Delta (setting [3]) and at PPAR Alpha was 80 to 100% in each case.
For `CSc1ccc(C(=O)[C@@H]2CN(C(C)=O)C[C@H]2CCc2cc(C)c(OC(C)(C)C(=O)O)c(C)c2)cc1` (racemic) [Compound 71], the EC50 was in the range of 150 to 200 nM at PPAR Delta (setting [2]) and 200 to 250 nM on PPAR Alpha (setting [1]). The Emax on PPAR Delta and on PPAR Alpha was 80 to 100% each time.
For `CSc1ccc(C(=O)[C@@H]2CN(C(=O)Oc3ccc(C(C)C)cc3)C[C@H]2c2cc(C)c(OC(C)(C)C(=O)O)c(C)c2)cc1` (single isomer, unassigned) [Compound 40], the EC50 is 100 to 150 nM at PPAR Delta (setting [2]) and under 100 nM at PPAR Alpha (setting [1]). Further, the Emax on PPAR Delta (setting [3]) and at PPAR Alpha was 80 to 100% in each case.
With `COC(=O)N1CC(Cc2ccc(SC)cc2)C(c2cc(C)c(OC(C)(C)C(=O)O)c(C)c2)C1` (single isomer, unassigned) [Compound 23], the EC50 at PPAR Alpha (setting [1]) was over 250 nM.
With `CSc1ccc(C(=O)C2CN(C(=O)Oc3ccccc3)CC2Cc2ccc(OC(C)(C)C(=O)O)cc2F)cc1` (single isomer, unassigned) [Compound 83], the results for the EC50 at PPAR Delta (setting [2]) and at PPAR Alpha (setting [1]) were 200 to 250 nM and 100 to 150 nM, respectively. Also, the Emax on PPAR Delta (setting [3]) and on PPAR Alpha was 80 to 100% throughout.
`COC(=O)N1C[C@@H](C(=O)c2ccc(SC)cc2)[C@H](c2cc(C)c(OC(C)(C)C(=O)O)c(C)c2)C1` (single isomer, unassigned) [Compound 4]: on PPAR Alpha, the “PPAR Alpha Maximum Activation Response %” value is reported as “III (key: 100% ≥ I ≥ 80%; 80% ≥ II ≥ 50%; III < 50%)”. For the same compound, the EC50 on PPAR Alpha (setting [1]) was over 250 nM.
With `Cc1cc(CCC2CN(C(=O)Oc3ccccc3)CC2C(=O)c2ccccc2)cc(C)c1OC(C)(C)C(=O)O` (single isomer, unassigned) [Compound 62], the EC50 on PPAR Delta (setting [2]) and on PPAR Alpha (setting [1]) was 100 to 150 nM each time. For the same compound, the Emax at PPAR Delta (setting [3]) and at PPAR Alpha was 80 to 100% each time.
As to `CSc1ccc(C(=O)[C@H]2CN(C)C[C@@H]2c2cc(C)c(OC(C)(C)C(=O)O)c(C)c2)cc1` (racemic) [Compound 1], the EC50 on PPAR Alpha (setting [1]) was over 250 nM. Further, the Emax on PPAR Alpha is under 50%.
`COCCN1CC(CCc2cc(C)c(OC(C)(C)C(=O)O)c(C)c2)C(C(=O)c2ccc(SC)cc2)C1` (stereo not drawn) [Compound 59]: the EC50 on PPAR Delta (setting [2]) and on PPAR Alpha (setting [1]) was 200 to 250 nM in each case. Moreover, the Emax at PPAR Delta (setting [3]) and at PPAR Alpha was 50 to 80% in each case.
In the case of `CSc1ccc(C(=O)[C@@H]2CN(S(C)(=O)=O)C[C@H]2CCc2cc(C)c(OC(C)(C)C(=O)O)c(C)c2)cc1` (single isomer, unassigned) [Compound 75], the EC50 was 200 to 250 nM on PPAR Delta (setting [2]) and over 250 nM on PPAR Alpha (setting [1]). The Emax at PPAR Delta (setting [3]) and at PPAR Alpha was 80 to 100% each time.
On to `CCOC(=O)N1CC(C(=O)c2ccc(SC)cc2)C(c2cc(C)c(OC(C)(C)C(=O)O)c(C)c2)C1` (single isomer, unassigned) [Compound 6], for which the EC50 at PPAR Alpha (setting [1]) was over 250 nM. In addition, the Emax on PPAR Alpha was 50 to 80%.
In the case of `CSc1ccc(C(=O)[C@@H]2CN(C(=O)Oc3ccccc3)C[C@H]2CCc2cc(C)c(OC(C)(C)C(=O)O)c(C)c2)cc1` (single isomer, unassigned) [Compound 51], the EC50 at PPAR Delta (setting [2]) and at PPAR Alpha (setting [1]) was under 100 nM each time. At PPAR Delta, the Emax was 80 to 100%.
On to `CC(C)(Sc1ccc(CCN(CCCCC2CCCCC2)C(=O)NC2CCCCC2)cc1)C(=O)O` [GW7647, reference compound], for which, at PPAR Alpha (reference agonist, indicated to be 100% (Note 1)), the Emax amounted to 100%.
Take `CSc1ccc(C(=O)C2CN(C3COC3)C[C@@H]2CCc2cc(C)c(OC(C)(C)C(=O)O)c(C)c2)cc1` (mixture of isomers) [Compound 73]: the EC50 on PPAR Delta (setting [2]) was over 250 nM; at PPAR Alpha (setting [1]), 200 to 250 nM. The Emax at PPAR Delta (setting [3]) and at PPAR Alpha was 80 to 100% in each case.
On to `CSc1ccc(C(=O)[C@H]2CN(C(=O)Oc3ccccc3)C[C@@H]2CCc2cc(C)c(OC(C)(C)C(=O)OC(C)C)c(C)c2)cc1` (single isomer, unassigned) [Compound 61], for which the EC50 on PPAR Delta (PPAR Delta EC50 nM) and on PPAR Alpha (PPAR Alpha EC50 nM) was over 250 nM throughout. The Emax at PPAR Delta and on PPAR Alpha was under 50% in each case.
As to `CSc1ccc(C(=O)C2CN(C(=O)OC(C)C)CC2c2cc(C)c(OC(C)(C)C(=O)O)c(C)c2)cc1` (single isomer, unassigned) [Compound 7], the EC50 on PPAR Delta (setting [2]) and on PPAR Alpha (setting [1]) was over 250 nM throughout. The Emax on PPAR Delta and on PPAR Alpha was 50 to 80% each time.
Consider `CSc1ccc(C(=O)C2CN(C(=O)c3ccccc3)CC2c2cc(C)c(OC(C)(C)C(=O)O)c(C)c2)cc1` (single isomer, unassigned) [Compound 17], for which the EC50 on PPAR Alpha (setting [1]) is over 250 nM.
Consider `CSc1ccc(C(=O)C2CN(C(=O)Oc3ccc(F)cc3)CC2c2cc(C)c(OC(C)(C)C(=O)O)c(C)c2)cc1` (single isomer, unassigned) [Compound 35], for which the EC50 at PPAR Delta (setting [2]) fell in the range of 150 to 200 nM; at PPAR Alpha (setting [1]), 200 to 250 nM. Also, the values for the Emax on PPAR Delta and at PPAR Alpha were 50 to 80% and 80 to 100%, respectively.
As for `CSc1ccc(C(=O)C2CN(C(=O)Oc3ccccc3)CC2Cc2cccc(OC(C)(C)C(=O)O)c2)cc1` (single isomer, unassigned) [Compound 50], the “PPAR Delta Maximum Activation Response %” value at PPAR Delta was “II (key: 100% ≥ I ≥ 80%; 80% ≥ II ≥ 50%; III < 50%)”. The EC50 at PPAR Delta (setting [2]) was in the range of 150 to 200 nM.
As for `CSc1ccc(C(=O)[C@H]2CN(C(=O)Oc3cnn(C)c3)C[C@@H]2Cc2cc(C)c(OC(C)(C)C(=O)O)c(C)c2)cc1` (racemic) [Compound 48], the results for the EC50 at PPAR Delta (setting [2]) and on PPAR Alpha (setting [1]) were 100 to 150 nM and under 100 nM, respectively. Besides, the Emax at PPAR Delta and on PPAR Alpha was 50 to 80% in each case.
Take `CSc1ccc(C(=O)C2CN(C(=O)Oc3ccccc3)CC2c2cccc(OC(C)(C)C(=O)O)c2)cc1` (stereo not drawn) [Compound 24]: the EC50 at PPAR Delta (setting [2]) is over 250 nM. In addition, the Emax on PPAR Delta is 80 to 100%.
Regarding `CSc1ccc(C(=O)C2CN(C(=O)c3ccccc3)CC2c2cc(C)c(OC(C)(C)C(=O)O)c(C)c2)cc1` (single isomer, unassigned) [Compound 16], on PPAR Alpha (setting [1]), the EC50 is over 250 nM. Moreover, the Emax at PPAR Alpha lay in the range of 80 to 100%.
In the same order, the values of `CSc1ccc(C(=O)C2CN(C(=O)OCc3ccccc3)CC2c2cc(C)c(OC(C)(C)C(=O)O)c(C)c2)cc1` (single isomer, unassigned) [Compound 8] are over 250 nM and 50 to 80%.
In the same order, the values of `COC(=O)N1CC(Cc2ccc(SC)cc2)C(c2cc(C)c(OC(C)(C)C(=O)O)c(C)c2)C1` (single isomer, unassigned) [Compound 22] are over 250 nM and under 50%.

For the origin of these results see patent US10526320B2, “Pyrrolidine derivatives as PPAR agonists” (GUANGDONG RAYNOVENT BIOTECH CO., LTD., priority 2016, dated 2020).
